Molecules are shown by their SMILES. Some results are limits rather than exact numbers.

Common to all, as to assay type: cell-based
The test system of assay [1] is Primary human fibroblasts derived from IPF patients (LL29 cells). The assay can be described thus: Inhibition of the fibrotic process: αSMA staining in TGF-β1-treated LL29 fibroblasts. To be noted: Fibroblast; for EC50: 96 h, LL29 cells, TGF-β1 20 ng/mL, 4 days, % αSMA-positive cells; for inhibition at 10 µM: read-out: percent inhibition at 10 μM. The text has this:
Representative compounds were screened using primary human fibroblasts (derived from IFF patients) treated with TGF-β1 to determine their ability to inhibit the fibrotic process.
K. L., et.al., “RhoA signaling modulates cyclin D1 expression in human lung fibroblasts; implications for idiopathic pulmonary fibrosis”, Respiratory Research (2006), 7(1), 88] were obtained from American Type Culture Collection (ATCC) and expanded in F12 medium supplemented with 15% Fetal Bovine Serum and Penicillin/Streptomycin.
LL29 cells are plated at 1,500 cells/well in 80 μL/well F12 medium supplemented with 1% Fetal Bovine Serum. […] Wells treated with TGF-β1 and containing DMSO were used as controls. […] Following incubation for 4 days, SYTOX green nucleic acid stain (Life Technologies [Thermo Fisher Scientific]) was added to the wells at a final concentration of 1 μM and incubated at room temperature for 30 min.

Assay [2] concerns Wnt activity (Sp5-Luc reporter, SW480 colon carcinoma cells). The assay can be described thus: Screening assay for Wnt activity: Sp5-Luc reporter gene assay in SW480 cells. The following applies: Homo sapiens; for EC50: SW480 Sp5-Luc reporter, overnight incubation; for inhibition at 10 µM: SW480, read-out: percent inhibition at 10 μM. The text has this:
The screening assay for Wnt activity is described as follows. Reporter cell lines can be generated by stably transducing cancer cell lines (e.g., colon cancer) or primary cells (e.g., IEC-6 intestinal cells) with a lentiviral construct that includes a Wnt-responsive promoter driving expression of the firefly luciferase gene.
SW480 colon carcinoma cells were transduced with a lentiviral vector expressing luciferase with a human Sp5 promoter consisting of a sequence of eight TCF/LEF binding sites. SW480 cells stably expressing the Sp5-Luc reporter gene and a hygromycin resistance gene were selected by treatment with 150 μg/mL of hygromycin for 7 days. These stably transduced SW480 cells were expanded in cell culture and used for all further screening activities. […] For Sp5-Luc reporter gene assays, the cells were plated at 4,000 cells/well in 384-well plates with medium containing 1% fetal bovine serum and incubated overnight at 37° C. and 5% CO2. Following incubation, 20 μl of BrightGlo luminescence reagent (Promega) was added to each well of the 384-well assay plates. The plates were placed on an orbital shaker for 2 min and then luminescence was quantified using the Envision (Perkin Elmer) plate reader. Readings were normalized to DMSO only treated cells, and normalized activities were utilized for EC50 calculations using the dose-response log (inhibitor) vs. response-variable slope (four parameters) nonlinear regression feature available in GraphPad Prism 5.0 (or Dotmatics).
(Reporter assays use an easily measured gene product as a stand-in for the process of interest.)

Assay [3] relates to SW480 colon cancer cells. The assay can be described thus: Cell viability assay (CellTiter-Blue) in SW480 colon cancer cells. To be noted: Homo sapiens; for EC50: 96 h, SW480 cell viability, four days incubation; for inhibition at 10 µM: SW480, read-out: percent inhibition at 10 μM. As to the method: Representative compounds were screened using the following assay procedure to assess the effect on cell viability as described below.
Approximately 2×10^3 SW480 colon cancer cells were seeded into each well and allowed to incubate in the presence or absence of compound for four days at 37° C./5% CO2. Eight replicates of DMSO-treated cells served as controls and cells treated with compound were performed in duplicate.
After incubation, 20 μL of CellTiter-Blue (Promega) was added to each well allowed to incubate for approximately 3 hours. This reagent was a buffered solution which contains resazurin, metabolically active cells were able to reduce rezarurin (blue) into resorufin (pink) which was highly fluorescent. This measured fluorescence was used as a readout for cell viability.
On the technique in general: The colour change of resazurin is a common sign of viable cells or microbes.

In assay [4] the test system is IL-6 (THP-1 cells). The assay can be described thus: IL-6 inhibition in THP-1 monocytes (HTRF). The following applies: Homo sapiens; for EC50: IL-6 inhibition, THP-1 cells, HTRF, 10-point dose-response starting from 10 μM. As to the method: Compound Screening: THP-1 cells were cultured in basal media with 1% FBS for 24 hours before the start of the assay. […] THP-1 cells were plated at 5000 cells/well in the 384-well plates and incubated at 37° C. for 2 h. 500 ng/mL of […] was added after 2 hours and cells were incubated for another 22 hours at 37° C. Plates were spun in a centrifuge for 1 minute at 10,000 rpm and a mixture of anti-IL6 XL665, and anti-IL6 Cryptate diluted in reconstitution buffer (Cisbio Inc.) was added to each well. Following incubation for 3 hrs at room temperature, Homogeneous Time-Resolved Fluorescence (HTRF) was measured using the Envision (Perkin Elmer) at 665 nm and […]. The ratio of fluorescence at 665 nm to 620 nm was used as a readout for IL6 quantification. All samples were processed in duplicate. Readings were normalized to DMSO treated cells and normalized activities were utilized for EC50 calculations using the dose-response log (inhibitor) vs. response-variable slope (four parameters) nonlinear regression feature available in GraphPad Prism 5.0 (or Dotmatics).
Background: TR-FRET usually uses a lanthanide donor and a delayed reading to cut background.

The subject of assay [5] is primary human mesenchymal stem cells (hMSCs). The assay can be described thus: Induction of chondrogenesis in hMSCs (nodule imaging, Rhodamine B / Nile Red). The following applies: 6 days; for Emax: relative to TGF-β3 (10 ng/mL) positive control, read-out: Max. Activity as % TGF-β3 activity; for EC50: concentration required to induce 50% levels of chondrogenesis vs TGF-β3, read-out: Conc (nM) of 50% TGF-β3 activity. From the text: Representative compounds were screened using primary human mesenchymal stem cells (hMSCs) to determine their ability to induce chondrogenesis (process by which cartilage is developed).
Primary human mesenchymal stem cells (hMSCs) were purchased from Lonza (Walkersville, Md.) and expanded in Mesenchymal Stem Cell Growth Media (Lonza). Cells between passage 3 and 6 were used for the experiments.
Area of nodules in each well was normalized to the average of 3 DMSO treated wells on the same plate using Excel (Microsoft Inc.). The normalized averages (fold change over DMSO) of 2 or 3 replicate wells for each compound concentration were calculated. Due to solubility limitations of some of the compounds, curve fitting was incomplete leading to inaccurate EC50 determinations.
Using TGF-β3 as a positive control, the concentration of representative compounds required to induce 50% levels of chondrogenesis is reported. In addition, the maximum activity of each compound and the respective dose that each compound reached maximum chondrogenesis activity is reported.

With `CCC(=O)Nc1cncc(-c2ccc3[nH]nc(-c4cc5c(-c6cccc(F)c6)cncc5[nH]4)c3c2)c1` [Compound 1], the EC50 in assay [1] is 62 nM; in assay [2], 45 nM; in assay [3], 94 nM; in assay [4], 45 nM. The Emax in assay [5] was 34%.
Consider `CN(C)Cc1cncc(-c2ccc3[nH]nc(-c4cc5c(-c6cccc(F)c6)cncc5[nH]4)c3c2)c1` [Compound 13, 1-(5-(3-(4-(3-Fluorophenyl)-1H-pyrrolo[2,3-c]pyridin-2-yl)-1H-indazol-5-yl)pyridin-3-yl)-N,N-dimethylmethanamine], for which the EC50 stood at 952 nM in assay [1]; 1280 nM in assay [2]; 420 nM in assay [3]; 75 nM in assay [4]; 10 nM in assay [5]. In assay [5], the Emax was found to be 193%.
Regarding `O=C(Nc1cncc(-c2ccc3[nH]nc(-c4cc5c(-c6cccc(F)c6)cncc5[nH]4)c3c2)c1)C1CC1` [Compound 20, N-(5-(3-(4-(3-Fluorophenyl)-1H-pyrrolo[2,3-c]pyridin-2-yl)-1H-indazol-5-yl)pyridin-3-yl)cyclopropanecarboxamide], the EC50 in assay [1] worked out at 122 nM; in assay [2], 45 nM; in assay [3], 67 nM; in assay [4], 17 nM; in assay [5], 900 nM. Besides, the Emax in assay [5] was 94%.
In the case of `Fc1cccc(-c2cncc3[nH]c(-c4n[nH]c5ccc(-c6cncc(CN7CCC(F)(F)C7)c6)cc45)cc23)c1` [Compound 26, 5-(5-((3,3-Difluoropyrrolidin-1-yl)methyl)pyridin-3-yl)-3-(4-(3-fluorophenyl)-1H-pyrrolo[2,3-c]pyridin-2-yl)-1H-indazole], the EC50 was found to be 322 nM in assay [1]; 160 nM in assay [2]; 734 nM in assay [3]; 74 nM in assay [4]; 2700 nM in assay [5]. Also, the Emax in assay [5] worked out at 87%.
`Fc1cccc(-c2cncc3[nH]c(-c4n[nH]c5ccc(-c6ccccn6)cc45)cc23)c1` [Compound 28, 3-(4-(3-Fluorophenyl)-1H-pyrrolo[2,3-c]pyridin-2-yl)-5-(pyridin-2-yl)-1H-indazole]: the EC50 in assay [1] was 460 nM; in assay [2], 670 nM; in assay [3], 355 nM; in assay [4], 2420 nM. For the same compound, the Emax in assay [5] amounted to 26%.
Regarding `Nc1cncc(-c2ccc3[nH]nc(-c4cc5c(-c6ccccc6F)cncc5[nH]4)c3c2)c1` [Compound 59, 5-(3-(4-(2-Fluorophenyl)-1H-pyrrolo[2,3-c]pyridin-2-yl)-1H-indazol-5-yl)pyridin-3-amine], the EC50 in assay [1] is 2900 nM; in assay [2] it was 875 nM; in assay [3] it was > 10000 nM; in assay [4], 4500 nM; in assay [5] it was 10 nM. Further, the inhibition at 10 µM in assay [3] stood at 27.9%. Also, the Emax in assay [5] stood at 58%.
`CCNCc1cncc(-c2ccc3[nH]nc(-c4cc5c(-c6ccccc6F)cncc5[nH]4)c3c2)c1` [Compound 62, N-((5-(3-(4-(2-Fluorophenyl)-1H-pyrrolo[2,3-c]pyridin-2-yl)-1H-indazol-5-yl)pyridin-3-yl)methyl)ethanamine]: the EC50 in assay [1] is 9730 nM; in assay [2], > 10000 nM; in assay [3], 4720 nM; in assay [4] it was 7510 nM; in assay [5], 100 nM. Besides, the inhibition at 10 µM in assay [2] was found to be 51%. Besides, in assay [5], the Emax is 86%.
As for `c1cncc(-c2ccc3[nH]nc(-c4cc5c(-c6cccnc6)cncc5[nH]4)c3c2)c1` [Compound 88, 5-(Pyridin-3-yl)-3-(4-(pyridin-3-yl)-1H-pyrrolo[2,3-c]pyridin-2-yl)-1H-indazole], the EC50 in assay [1] was > 10000 nM; in assay [2], 310 nM; in assay [3], 495 nM; in assay [4], 105 nM; in assay [5], 100 nM. In assay [1], the inhibition at 10 µM turned out to be 0%. In assay [5], the Emax came to 58%.
Turning to `CC(C)C(=O)Nc1cncc(-c2ccc3[nH]nc(-c4cc5c(-c6cccnc6)cncc5[nH]4)c3c2)c1` [Compound 93, N-(5-(3-(4-(Pyridin-3-yl)-1H-pyrrolo[2,3-c]pyridin-2-yl)-1H-indazol-5-yl)pyridin-3-yl)isobutyramide], the EC50 was 175 nM in assay [1], 260 nM in assay [2], 584 nM in assay [3] and 247 nM in assay [4]. The Emax in assay [5] is 34%.
Turning to `O=C(Nc1cncc(-c2ccc3[nH]nc(-c4cc5c(-c6cccnc6)cncc5[nH]4)c3c2)c1)c1ccccc1` [Compound 95], the EC50 was > 10000 nM in assay [1]; > 10000 nM in assay [2]; > 10000 nM in assay [3]; 1710 nM in assay [4]; 10 nM in assay [5]. The inhibition at 10 µM stood at 34.2% in assay [1], 32.4% in assay [2] and 22.7% in assay [3]. Also, the Emax in assay [5] was determined as 69%.
On to `c1ncc(-c2ccc3[nH]nc(-c4cc5c(N6CCCCC6)cncc5[nH]4)c3c2)cc1OC1CCCCC1` [Compound 607, 5-(5-(Cyclohexyloxy)pyridin-3-yl)-3-(4-(piperidin-1-yl)-1H-pyrrolo[2,3-c]pyridin-2-yl)-1H-indazole], for which the EC50 turned out to be 647 nM in assay [1], 1120 nM in assay [2], 1980 nM in assay [3] and 4450 nM in assay [4].
For the compound `CS(=O)(=O)NCc1cc(F)cc(-c2cncc3[nH]c(-c4n[nH]c5ccc(-c6cncc(OCc7ccccc7)c6)cc45)cc23)c1` [Compound 774, N-(3-(2-(5-(5-(Benzyloxy)pyridin-3-yl)-1H-indazol-3-yl)-1H-pyrrolo[2,3-c]pyridin-4-yl)-5-fluorobenzyl)methanesulfonamide], the EC50 was 1490 nM in assay [1], 2150 nM in assay [2], 2010 nM in assay [3] and > 10000 nM in assay [4]. Further, the inhibition at 10 µM in assay [4] (THP-1, read-out: percentage in parentheses printed under EC50 >10) turned out to be 45%.

Values taken from patent US20180228780A1, “3-(1H-PYRROLO[2,3-C]PYRIDIN-2-YL)-1H-INDAZOLES AND THERAPEUTIC USES THEREOF” (Samumed, LLC, priority 2015, published 2018).
